Where two headings read alike, the source gives them in different places.
How the values were obtained:
SARS-S PP [1] = format: cell-based, SARS-CoV
VSV-G PP [2] = format: cell-based, Vesicular stomatitis virus
MERS-S PP [3] = format: cell-based, MERS-CoV
Vero E6 cells [4] = test system: Vero E6 cells
[5] = test system: SARS CoV-2 (USA_WA1/2020)
Vero E6 cells [6] = test system: Vero E6 cells; remark: listed apart in the source
VSV-G PP [7] = experiment: microbe, parasite or virus in culture; format: cell-based, Vesicular stomatitis virus; settings: for EC50: Vesicular stomatitis virus, Huh-7, read-out: VSV-G PP in Huh7 EC50
Huh7 cells = settings: human
[8] = test system: SARS CoV-2 (USA_WA1/2020); settings: cited from earlier work
in vitro = settings: human
SARS-S PP [9] = format: cell-based, SARS-CoV; remark: listed apart in the source
MERS-S PP [10] = format: cell-based, MERS-CoV; remark: listed apart in the source

Molecule | SARS-S PP in Vero E6 efficacy (SARS-S PP [1]) | VSV-G PP in Vero E6 efficacy (VSV-G PP [2]) | MERS-S PP in Huh7 efficacy (MERS-S PP [3]) | VSV-G PP in Huh7 efficacy (VSV-G PP [7]) | EC50 (VSV-G PP [7]) | Vero E6 cytotoxicity cytotox (Vero E6 cells [4]; African green monkey) | Huh7 cytotoxicity cytotox (Huh7 cells) | Vero E6 cytotoxicity cytotox (SARS-CoV-2 CPE counter screen) (Vero E6 cells [6]; African green monkey) | CC50 (in vitro) | safety ratio (CC50 of Vero E6 CPE counter screen divided by EC50 of SARS-CoV-2 CPE assay) ([5]; African green monkey) | further results
colforsin [NKH477] | 71.4% | 0% |  |  |  |  |  |  |  |  | EC50 (SARS-S PP [1]; read-out: SARS-S PP in Vero E6 EC50): 1.36 µM; EC50 (VSV-G PP [2]; read-out: VSV-G PP in Vero E6 EC50): > 57.5 µM; activity in MERS-S PP entry in Huh7 cells (in words) (MERS-S PP [3]): not in MERS-S entry in Huh7 cells; CC50 (Vero E6 cells [4]): > 57.5 µM; Vero E6 cytotoxicity cytotox (Vero E6 cells [4]): 0%; safety ratio (CC50 of Vero E6 CPE counter screen divided by EC50 of SARS-CoV-2 CPE assay) [5]: 1.1; EC50 ([5]; read-out: SARS-CoV-2 CPE EC50): 23.1 µM; CC50 (Vero E6 cells [6]): 25.2 µM; Vero E6 cytotoxicity cytotox (SARS-CoV-2 CPE counter screen) (Vero E6 cells [6]): 42.0%
COc1ccc2cc1Oc1ccc(cc1)C[C@H]1c3c(cc4c(c3Oc3cc5c(cc3OC)CCN(C)[C@@H]5C2)OCO4)CCN1C [cepharanthine] | 90.9% | 76.9% | 108.4% | 115.3% | 24.2 µM | 106.2% | 88.9% | 99.0% | 38.3 µM |  | SARS-CoV-2 CPE efficacy [5]: 92.5%; block of SARS-CoV-2 induced CPE in Vero E6 cells (in words) [8]: able to block SARS-CoV-2 induced CPE in Vero E6 cells, only when added during the viral entry time period, and not the postentry period
CC1=C[C@]23C(=O)[C@@H](C=C(CO)[C@@H](O)[C@]2(O)[C@H]1O)[C@H]1[C@@H](C[C@H]3C)C1(C)C [ingenol] | 93.3% | 76.4% |  |  |  | –4.0% |  | 0.0% |  | 355.7 | selectivity ratio (EC50 of VSV-G PP entry divided by SARS-S PP entry EC50) (SARS-S PP [1]): 12.0; activity in MERS-S PP entry in Huh7 cells (in words) (MERS-S PP [3]): not in MERS-S entry in Huh7 cells
CCN1CCN(Cc2ccc(Nc3ncc(F)c(-c4cc(F)c5nc(C)n(C(C)C)c5c4)n3)nc2)CC1 [abemaciclib] |  |  | 82.3% | 27.1% | > 57.5 µM |  | 90.0% | 34.0% | 17.1 µM | 6.3 | selectivity toward SARS-S-based entry compared with VSV-G in Calu-3 cells (SARS-S PP [9]): > 10 fold; selectivity toward MERS-S-based entry compared with VSV-G in Calu-3 cells (MERS-S PP [10]): > 10 fold
CN(C)CCCN1c2ccccc2CCc2ccc(Cl)cc21 [clomipramine] |  |  |  |  |  |  |  |  |  |  | activity against SARS-S PP entry in the primary screen (in words) (SARS-S PP [1]): active against SARS-S PP entry; cytotoxicity in the primary screen (in words) (Vero E6 cells [4]): noncytotoxic; protection against SARS-CoV-2 CPE (in words) [8]: protect against SARS-CoV-2 CPE
COc1c(OCCCN2CCOCC2)ccc2c1N=C(NC(=O)c1cnc(N)nc1)N1CCN=C21 [copanlisib] |  |  | 65.8% | 6.2% | > 57.5 µM |  | 13.6% | 42.4% | > 57.5 µM |  | SARS-CoV-2 CPE efficacy [5]: 0.0%
CC(CN(C)C)CN1c2ccccc2CCc2ccccc21 (stereo not drawn) [trimipramine] | 90.9% | 29.2% |  |  |  | 16.6% |  | 16.6% |  | 1.0 | entry inhibition activity in Calu-3 cells (in words) (SARS-S PP [9]): not confirmed
C=CC(=O)Nc1cc(Nc2nccc(-c3cn(C)c4ccccc34)n2)c(OC)cc1N(C)CCN(C)C [osimertinib] | 117.5% | 118.4% |  |  |  | 99.6% |  | 99.7% |  | 2.5 | selectivity ratio (EC50 of VSV-G PP entry divided by SARS-S PP entry EC50) (SARS-S PP [1]): 15.8
